Experimental data from PMC11864979, “First-in-class ultralong-target-residence-time p38α inhibitors as a mitosis-targeted therapy for colorectal cancer” (Nature Cancer, 2025).
Read-outs that look alike come from different tables or passages of the source.

How the values were obtained:
Experiment in all cases: selectivity profiling in a panel of 340 wild-type kinases (Reaction Biology Europe)
Type in all cases: binding
340 wild-type kinases [1] = biological target: T1, 340 wild-type kinases (Homo sapiens, UniProt P08922)
T1 construct: purchased Reaction Biology Europe
T1 sequence (P08922 28-2347): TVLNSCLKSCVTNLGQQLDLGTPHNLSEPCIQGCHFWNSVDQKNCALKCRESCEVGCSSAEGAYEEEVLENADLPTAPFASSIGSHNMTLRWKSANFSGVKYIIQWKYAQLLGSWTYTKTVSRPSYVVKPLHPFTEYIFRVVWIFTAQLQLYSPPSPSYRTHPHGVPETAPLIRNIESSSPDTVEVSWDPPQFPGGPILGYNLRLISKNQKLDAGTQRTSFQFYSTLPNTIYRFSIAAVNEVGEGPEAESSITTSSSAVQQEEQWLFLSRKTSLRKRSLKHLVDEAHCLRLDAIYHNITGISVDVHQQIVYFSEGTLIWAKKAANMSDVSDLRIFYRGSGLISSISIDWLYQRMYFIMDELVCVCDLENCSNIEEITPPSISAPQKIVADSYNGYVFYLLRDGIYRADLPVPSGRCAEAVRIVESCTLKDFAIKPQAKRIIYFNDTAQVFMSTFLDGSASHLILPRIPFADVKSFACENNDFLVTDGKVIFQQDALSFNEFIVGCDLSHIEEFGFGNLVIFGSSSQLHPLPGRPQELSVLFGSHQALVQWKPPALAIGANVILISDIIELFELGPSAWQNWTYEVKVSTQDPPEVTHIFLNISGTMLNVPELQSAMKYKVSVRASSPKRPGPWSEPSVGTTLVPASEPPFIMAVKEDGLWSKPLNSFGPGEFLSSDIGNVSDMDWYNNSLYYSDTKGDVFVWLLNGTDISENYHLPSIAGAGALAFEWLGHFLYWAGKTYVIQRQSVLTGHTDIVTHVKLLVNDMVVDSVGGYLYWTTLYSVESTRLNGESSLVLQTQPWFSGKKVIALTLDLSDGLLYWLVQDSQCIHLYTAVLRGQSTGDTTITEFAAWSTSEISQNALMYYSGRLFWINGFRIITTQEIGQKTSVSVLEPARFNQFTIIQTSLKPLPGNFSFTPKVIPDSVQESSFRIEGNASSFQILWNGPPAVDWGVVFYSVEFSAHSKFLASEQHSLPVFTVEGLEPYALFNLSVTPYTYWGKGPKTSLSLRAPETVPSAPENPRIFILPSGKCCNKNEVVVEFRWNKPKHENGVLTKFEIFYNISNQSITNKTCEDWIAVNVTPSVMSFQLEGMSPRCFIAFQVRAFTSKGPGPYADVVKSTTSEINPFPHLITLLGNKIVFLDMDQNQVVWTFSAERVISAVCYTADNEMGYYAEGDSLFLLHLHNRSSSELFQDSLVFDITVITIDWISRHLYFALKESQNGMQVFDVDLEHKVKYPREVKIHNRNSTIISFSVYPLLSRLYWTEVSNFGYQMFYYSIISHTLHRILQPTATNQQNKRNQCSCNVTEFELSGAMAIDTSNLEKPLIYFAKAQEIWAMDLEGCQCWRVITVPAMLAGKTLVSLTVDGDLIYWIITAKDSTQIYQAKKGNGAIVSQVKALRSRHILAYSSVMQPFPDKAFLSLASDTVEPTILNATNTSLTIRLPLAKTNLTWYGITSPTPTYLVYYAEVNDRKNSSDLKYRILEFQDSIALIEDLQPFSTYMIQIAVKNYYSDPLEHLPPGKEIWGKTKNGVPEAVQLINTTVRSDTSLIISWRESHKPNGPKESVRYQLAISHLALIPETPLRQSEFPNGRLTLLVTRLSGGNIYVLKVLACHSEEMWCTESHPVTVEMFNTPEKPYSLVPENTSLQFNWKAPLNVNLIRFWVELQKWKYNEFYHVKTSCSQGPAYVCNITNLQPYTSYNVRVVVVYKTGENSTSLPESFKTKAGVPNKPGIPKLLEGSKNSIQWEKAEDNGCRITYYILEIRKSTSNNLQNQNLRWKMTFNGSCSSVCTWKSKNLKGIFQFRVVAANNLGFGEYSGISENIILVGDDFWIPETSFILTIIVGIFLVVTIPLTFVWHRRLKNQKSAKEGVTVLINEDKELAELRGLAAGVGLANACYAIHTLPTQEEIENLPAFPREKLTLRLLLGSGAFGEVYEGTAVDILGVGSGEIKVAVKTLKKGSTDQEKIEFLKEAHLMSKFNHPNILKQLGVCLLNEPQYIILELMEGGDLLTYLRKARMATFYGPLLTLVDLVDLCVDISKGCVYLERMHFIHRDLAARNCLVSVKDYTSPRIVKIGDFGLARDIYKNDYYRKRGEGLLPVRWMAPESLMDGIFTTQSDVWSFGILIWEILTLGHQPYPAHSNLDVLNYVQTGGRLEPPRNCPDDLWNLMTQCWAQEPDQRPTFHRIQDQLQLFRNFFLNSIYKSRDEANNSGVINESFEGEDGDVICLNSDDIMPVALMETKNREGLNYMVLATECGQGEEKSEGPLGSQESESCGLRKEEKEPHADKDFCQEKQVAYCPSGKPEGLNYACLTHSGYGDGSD

340 wild-type kinases [2] = biological target: T2, 340 wild-type kinases (Homo sapiens, UniProt Q9UQB9)
T2 construct: purchased Reaction Biology Europe
T2 sequence (Q9UQB9 1-309): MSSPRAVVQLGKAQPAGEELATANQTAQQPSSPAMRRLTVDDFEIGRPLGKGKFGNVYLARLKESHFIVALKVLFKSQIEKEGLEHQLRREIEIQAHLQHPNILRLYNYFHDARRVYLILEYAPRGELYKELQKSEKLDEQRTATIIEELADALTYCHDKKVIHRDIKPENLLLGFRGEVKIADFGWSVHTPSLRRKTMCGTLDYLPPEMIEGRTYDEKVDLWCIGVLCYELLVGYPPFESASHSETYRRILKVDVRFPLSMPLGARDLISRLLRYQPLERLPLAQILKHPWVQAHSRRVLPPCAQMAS

340 wild-type kinases [3] = biological target: T3, 340 wild-type kinases (Homo sapiens, UniProt P51451)
T3 construct: purchased Reaction Biology Europe

340 wild-type kinases [4] = biological target: T4, 340 wild-type kinases (Homo sapiens, UniProt Q8N4C8)
T4 construct: purchased Reaction Biology Europe
T4 sequence (Q8N4C8 whole entry): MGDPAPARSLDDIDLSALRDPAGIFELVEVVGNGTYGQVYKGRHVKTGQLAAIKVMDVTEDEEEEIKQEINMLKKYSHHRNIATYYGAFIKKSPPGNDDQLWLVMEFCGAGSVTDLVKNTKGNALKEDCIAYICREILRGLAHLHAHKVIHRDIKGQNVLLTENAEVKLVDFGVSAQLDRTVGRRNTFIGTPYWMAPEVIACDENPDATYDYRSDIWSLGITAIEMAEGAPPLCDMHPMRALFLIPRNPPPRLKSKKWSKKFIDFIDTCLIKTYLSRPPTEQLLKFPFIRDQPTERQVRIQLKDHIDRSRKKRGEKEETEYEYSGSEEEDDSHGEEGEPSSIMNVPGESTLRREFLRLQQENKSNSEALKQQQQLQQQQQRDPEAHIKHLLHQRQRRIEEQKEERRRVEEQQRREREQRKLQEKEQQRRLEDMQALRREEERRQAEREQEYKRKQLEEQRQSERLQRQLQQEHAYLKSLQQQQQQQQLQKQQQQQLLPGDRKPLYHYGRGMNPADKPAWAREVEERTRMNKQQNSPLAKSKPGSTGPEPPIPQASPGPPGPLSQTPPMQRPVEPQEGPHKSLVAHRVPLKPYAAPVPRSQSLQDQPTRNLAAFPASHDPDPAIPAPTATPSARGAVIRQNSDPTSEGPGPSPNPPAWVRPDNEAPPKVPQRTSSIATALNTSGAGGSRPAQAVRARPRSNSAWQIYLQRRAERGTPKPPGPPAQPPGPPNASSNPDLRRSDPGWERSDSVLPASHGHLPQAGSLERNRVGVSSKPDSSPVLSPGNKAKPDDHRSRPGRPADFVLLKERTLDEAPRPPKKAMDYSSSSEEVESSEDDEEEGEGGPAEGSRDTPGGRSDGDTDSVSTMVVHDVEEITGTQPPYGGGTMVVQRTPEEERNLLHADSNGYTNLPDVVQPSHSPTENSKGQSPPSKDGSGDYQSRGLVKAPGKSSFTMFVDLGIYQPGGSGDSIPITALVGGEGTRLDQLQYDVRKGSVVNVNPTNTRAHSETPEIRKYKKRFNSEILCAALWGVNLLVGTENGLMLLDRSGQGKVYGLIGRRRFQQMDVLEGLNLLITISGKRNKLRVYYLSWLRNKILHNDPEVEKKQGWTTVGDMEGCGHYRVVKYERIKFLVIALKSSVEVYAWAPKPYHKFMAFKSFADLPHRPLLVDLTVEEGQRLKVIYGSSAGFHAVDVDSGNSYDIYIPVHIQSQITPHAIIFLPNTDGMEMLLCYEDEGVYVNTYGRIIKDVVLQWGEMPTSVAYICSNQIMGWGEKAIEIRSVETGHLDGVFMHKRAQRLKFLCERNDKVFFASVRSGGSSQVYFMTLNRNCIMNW

340 wild-type kinases [5] = biological target: T5, 340 wild-type kinases (Homo sapiens, UniProt Q8IZL9)
T5 construct: purchased Reaction Biology Europe
T5 sequence (Q8IZL9 whole entry): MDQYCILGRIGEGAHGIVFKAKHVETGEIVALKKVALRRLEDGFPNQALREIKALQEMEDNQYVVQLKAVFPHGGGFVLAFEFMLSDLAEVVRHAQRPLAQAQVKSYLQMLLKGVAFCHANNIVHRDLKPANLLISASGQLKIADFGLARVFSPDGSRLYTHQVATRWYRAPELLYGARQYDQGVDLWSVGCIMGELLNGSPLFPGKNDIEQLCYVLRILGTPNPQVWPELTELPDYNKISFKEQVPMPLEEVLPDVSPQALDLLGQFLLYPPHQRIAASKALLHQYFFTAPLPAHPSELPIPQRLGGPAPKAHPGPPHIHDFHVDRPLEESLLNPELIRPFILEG

340 wild-type kinases [6] = biological target: T6, 340 wild-type kinases (Homo sapiens, UniProt Q16584)
T6 construct: purchased Reaction Biology Europe

340 wild-type kinases [7] = biological target: T7, 340 wild-type kinases (Homo sapiens, UniProt Q13131)
T7 construct: purchased Reaction Biology Europe
T7 sequence (Q13131 whole entry): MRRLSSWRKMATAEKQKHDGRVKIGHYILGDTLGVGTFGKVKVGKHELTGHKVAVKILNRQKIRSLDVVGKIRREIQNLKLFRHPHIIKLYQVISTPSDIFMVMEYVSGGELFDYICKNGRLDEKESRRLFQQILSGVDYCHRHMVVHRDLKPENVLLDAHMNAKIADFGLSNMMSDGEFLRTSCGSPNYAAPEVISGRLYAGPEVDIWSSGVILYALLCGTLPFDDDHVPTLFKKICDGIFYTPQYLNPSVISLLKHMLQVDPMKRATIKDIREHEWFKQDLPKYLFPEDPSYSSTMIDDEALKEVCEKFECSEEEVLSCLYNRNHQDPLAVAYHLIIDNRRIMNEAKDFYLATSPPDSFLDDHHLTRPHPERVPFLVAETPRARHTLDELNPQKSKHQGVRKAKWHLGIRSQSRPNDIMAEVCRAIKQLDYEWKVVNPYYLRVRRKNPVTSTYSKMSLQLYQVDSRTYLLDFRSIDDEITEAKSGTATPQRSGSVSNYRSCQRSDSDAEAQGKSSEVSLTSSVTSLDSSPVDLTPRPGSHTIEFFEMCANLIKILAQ

340 wild-type kinases [8] = biological target: T8, 340 wild-type kinases (Homo sapiens, UniProt Q12866)
T8 construct: purchased Reaction Biology Europe
T8 sequence (Q12866 21-999): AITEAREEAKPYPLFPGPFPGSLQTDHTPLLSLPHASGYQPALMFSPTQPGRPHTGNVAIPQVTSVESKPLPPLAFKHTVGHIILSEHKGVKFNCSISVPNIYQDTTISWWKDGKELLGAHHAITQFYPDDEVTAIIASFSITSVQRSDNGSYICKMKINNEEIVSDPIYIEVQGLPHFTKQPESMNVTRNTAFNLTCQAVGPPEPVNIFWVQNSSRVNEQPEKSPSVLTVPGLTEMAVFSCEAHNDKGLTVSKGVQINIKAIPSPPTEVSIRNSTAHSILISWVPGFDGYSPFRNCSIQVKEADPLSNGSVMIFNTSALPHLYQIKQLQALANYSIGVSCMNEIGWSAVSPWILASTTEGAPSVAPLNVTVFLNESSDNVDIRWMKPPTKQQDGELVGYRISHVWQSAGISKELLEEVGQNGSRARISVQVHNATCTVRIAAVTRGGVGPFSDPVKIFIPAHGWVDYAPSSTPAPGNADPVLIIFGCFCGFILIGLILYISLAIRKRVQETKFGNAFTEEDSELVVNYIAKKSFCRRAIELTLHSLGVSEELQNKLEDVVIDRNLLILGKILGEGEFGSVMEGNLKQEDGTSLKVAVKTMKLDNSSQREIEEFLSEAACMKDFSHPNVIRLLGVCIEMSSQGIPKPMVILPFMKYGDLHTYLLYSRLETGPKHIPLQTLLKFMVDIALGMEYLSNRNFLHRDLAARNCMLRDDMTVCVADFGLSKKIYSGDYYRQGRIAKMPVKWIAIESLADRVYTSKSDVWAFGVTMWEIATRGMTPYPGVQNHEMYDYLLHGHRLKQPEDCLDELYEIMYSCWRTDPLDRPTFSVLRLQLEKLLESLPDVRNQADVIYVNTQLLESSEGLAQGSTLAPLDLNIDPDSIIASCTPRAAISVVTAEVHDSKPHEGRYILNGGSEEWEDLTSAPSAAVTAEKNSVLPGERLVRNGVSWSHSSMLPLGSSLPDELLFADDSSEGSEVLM

340 wild-type kinases [9] = biological target: T9, 340 wild-type kinases (Homo sapiens, UniProt Q86UE8)
T9 construct: purchased Reaction Biology Europe

340 wild-type kinases [10] = biological target: T10, 340 wild-type kinases (Homo sapiens, UniProt Q8IU85)
T10 construct: purchased Reaction Biology Europe
T10 sequence (Q8IU85 whole entry): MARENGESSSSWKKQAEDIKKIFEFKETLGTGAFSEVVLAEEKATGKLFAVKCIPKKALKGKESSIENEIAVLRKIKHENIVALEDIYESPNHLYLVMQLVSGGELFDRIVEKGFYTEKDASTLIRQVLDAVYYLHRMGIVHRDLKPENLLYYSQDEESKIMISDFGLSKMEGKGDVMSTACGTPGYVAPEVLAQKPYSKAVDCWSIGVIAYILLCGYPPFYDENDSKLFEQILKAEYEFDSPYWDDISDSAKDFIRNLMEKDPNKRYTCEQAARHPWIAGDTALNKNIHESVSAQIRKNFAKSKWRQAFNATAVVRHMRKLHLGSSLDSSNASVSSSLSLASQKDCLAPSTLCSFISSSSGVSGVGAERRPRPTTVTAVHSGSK

SMILES: CNC(=O)c1ccc2c(c1)C(=O)c1ccc(Nc3ccc(F)c(NC(=O)C4CC4)c3)cc1CC2 [Compound 2015]
- remaining activity at 0.2 µM (340 wild-type kinases [1]; 0.2 µM 2015, read-out: ROS residual activity): 114%
- remaining activity at 1 µM (340 wild-type kinases [1]; 1 µM 2015, read-out: ROS residual activity): 94.6%
- remaining activity at 0.2 µM (340 wild-type kinases [1]; ROS, 0.2 µM, read-out: residual activity): 114%
- remaining activity at 1 µM (340 wild-type kinases [1]; ROS, 1 µM, read-out: residual activity): 94.6%
- remaining activity at 0.2 µM (340 wild-type kinases [2]; 0.2 µM 2015, read-out: AuroraC residual activity): 88.5%
- remaining activity at 1 µM (340 wild-type kinases [2]; 1 µM 2015, read-out: AuroraC residual activity): 96.3%
- remaining activity at 0.2 µM (340 wild-type kinases [2]; AuroraC, 0.2 µM, read-out: residual activity): 88.5%
- remaining activity at 1 µM (340 wild-type kinases [2]; AuroraC, 1 µM, read-out: residual activity): 96.3%
- remaining activity at 0.2 µM (340 wild-type kinases [3]; 0.2 µM 2015, read-out: BLK residual activity): 107%
- remaining activity at 1 µM (340 wild-type kinases [3]; 1 µM 2015, read-out: BLK residual activity): 104%
- remaining activity at 0.2 µM (340 wild-type kinases [3]; BLK, 0.2 µM, read-out: residual activity): 107%
- remaining activity at 1 µM (340 wild-type kinases [3]; BLK, 1 µM, read-out: residual activity): 104%
- remaining activity at 0.2 µM (340 wild-type kinases [4]; 0.2 µM 2015, read-out: MINK1 residual activity): 88.4%
- remaining activity at 1 µM (340 wild-type kinases [4]; 1 µM 2015, read-out: MINK1 residual activity): 84.4%
- remaining activity at 0.2 µM (340 wild-type kinases [4]; MINK1, 0.2 µM, read-out: residual activity): 88.4%
- remaining activity at 1 µM (340 wild-type kinases [4]; MINK1, 1 µM, read-out: residual activity): 84.4%
- remaining activity at 0.2 µM (340 wild-type kinases [5]; 0.2 µM 2015, read-out: CDK20/CycH residual activity): 107%
- remaining activity at 0.2 µM (340 wild-type kinases [5]; 0.2 µM 2015, read-out: CDK20/CycT1 residual activity): 103%
- remaining activity at 1 µM (340 wild-type kinases [5]; 1 µM 2015, read-out: CDK20/CycH residual activity): 97.2%
- remaining activity at 1 µM (340 wild-type kinases [5]; 1 µM 2015, read-out: CDK20/CycT1 residual activity): 96.3%
- remaining activity at 0.2 µM (340 wild-type kinases [5]; CDK20/CycH, 0.2 µM, read-out: residual activity): 107%
- remaining activity at 1 µM (340 wild-type kinases [5]; CDK20/CycH, 1 µM, read-out: residual activity): 97.2%
- remaining activity at 0.2 µM (340 wild-type kinases [5]; CDK20/CycT1, 0.2 µM, read-out: residual activity): 103%
- remaining activity at 1 µM (340 wild-type kinases [5]; CDK20/CycT1, 1 µM, read-out: residual activity): 96.3%
- remaining activity at 0.2 µM (340 wild-type kinases [6]; 0.2 µM 2015, read-out: MAP3K11 residual activity): 100%
- remaining activity at 1 µM (340 wild-type kinases [6]; 1 µM 2015, read-out: MAP3K11 residual activity): 93.8%
- remaining activity at 0.2 µM (340 wild-type kinases [6]; MAP3K11, 0.2 µM, read-out: residual activity): 100%
- remaining activity at 1 µM (340 wild-type kinases [6]; MAP3K11, 1 µM, read-out: residual activity): 93.8%
- remaining activity at 0.2 µM (340 wild-type kinases [7]; 0.2 µM 2015, read-out: AMPKalpha1 residual activity): 91.7%
- remaining activity at 1 µM (340 wild-type kinases [7]; 1 µM 2015, read-out: AMPKalpha1 residual activity): 101%
- remaining activity at 0.2 µM (340 wild-type kinases [7]; AMPKalpha1, 0.2 µM, read-out: residual activity): 91.8%
- remaining activity at 1 µM (340 wild-type kinases [7]; AMPKalpha1, 1 µM, read-out: residual activity): 101%
- remaining activity at 0.2 µM (340 wild-type kinases [8]; 0.2 µM 2015, read-out: MERTK residual activity): 88.3%
- remaining activity at 1 µM (340 wild-type kinases [8]; 1 µM 2015, read-out: MERTK residual activity): 97%
- remaining activity at 0.2 µM (340 wild-type kinases [8]; MERTK, 0.2 µM, read-out: residual activity): 88.3%
- remaining activity at 1 µM (340 wild-type kinases [8]; MERTK, 1 µM, read-out: residual activity): 97%
- remaining activity at 0.2 µM (340 wild-type kinases [9]; 0.2 µM 2015, read-out: TLK2 residual activity): 147%
- remaining activity at 1 µM (340 wild-type kinases [9]; 1 µM 2015, read-out: TLK2 residual activity): 124%
- remaining activity at 0.2 µM (340 wild-type kinases [9]; TLK2, 0.2 µM, read-out: residual activity): 147%
- remaining activity at 1 µM (340 wild-type kinases [9]; TLK2, 1 µM, read-out: residual activity): 124%
- remaining activity at 0.2 µM (340 wild-type kinases [10]; 0.2 µM 2015, read-out: CAMK1D residual activity): 100%
- remaining activity at 1 µM (340 wild-type kinases [10]; 1 µM 2015, read-out: CAMK1D residual activity): 90.6%
- remaining activity at 0.2 µM (340 wild-type kinases [10]; CAMK1D, 0.2 µM, read-out: residual activity): 100%
- remaining activity at 1 µM (340 wild-type kinases [10]; CAMK1D, 1 µM, read-out: residual activity): 90.6%
